Data set [1] in a line: Solubility test in PBS(−) and PBS(+) solution. Type of data set: physicochemical. The conditions noted are these: for Solubility PBS(+): PBS(+) solution (with CaCl2 and MgCl2); for Solubility PBS (−): PBS(−) solution, ultrasonicated at 30° C. 10 minutes, room temperature 2 hours, absorbance at 500 nm. The method, then: PBS tablets (ICN Bioohemi Inc., containing 0.02 g of KH2PO4, 0.115 g of Na2HPO4, 0.02 g of KCl and […] of NaCl per tablet) were dissolved in distilled water (100 ml), and the solution was autoclaved to obtain a PBS(−) solution. The PBS(−) solution (80 ml) was added with CaCl2 dihydrate (1 g/L, 10 ml) and MgCl2 hexahydrate (1 g/L, 10 ml) to prepare a PBS(+) solution.
Each test compound (1 mg) was added to the PBS(−) solution (300 μl), and the mixture was ultrasonicated at 30° C. for 10 minutes, and left at room temperature for 2 hours. Then, the mixture was centrifuged (12,000 rpm, 10 minutes), the supernatant was diluted 50 times with 0.01 N sodium hydroxide solution, and absorbance of the diluted mixture was measured at 500 nm.
The solubility in the PBS(+) solution can also be obtained in a similar manner.

Data set [2] is described as follows: Mannan binding test. The conditions noted are these: PBS(+); incubation at 30° C. for 24 hours; ~0: below detection limit (trace). Further details: species or system yeast. The method, then:
A PBS(+) solution (100 μl) of mannan (Sigma, derived from yeast, 50 μg/ml) and a PBS(+) solution (100 μl) of each test compound (40 μg/ml) were mixed, and incubated at 30° C. for 24 hours. Then, the mixture was centrifuged (14,000 rpm, 4° C., 5 minutes), the supernatant was diluted 10 times with 0.01 N sodium hydroxide solution, and absorbance of the diluted mixture was measured at 500 nm. The amount of the dissolved compound was calculated on the basis of E1 cm1%180 (500 nm), and the amount of the compound binding to mannan was calculated.

The test system of data set [3] is A. fumigatus IFO8866. Briefly: Antifungal activity test, agar dilution method. The conditions noted are these: for MIC A. fumigatus IFO8866: yeast morphology agar, pH 7.0, 30° C. for 2 days; for antifungal activity against A. fumigatus (in words): compared with control BMY28864. Type of data set: cell-based. The method, then: (§1) Antifungal activity was measured by the agar dilution method utilizing the yeast morphology agar (0.15 M phosphate buffer, pH 7.0). Each microorganism was inoculated in an amount of 5 μl of 2×10^6 cells/ml solution per spot, and cultured at 30° C. for 2 days. The results were represented in terms of the minimum growth inhibitory concentration. As a control compound, BMY28864 was used.
(In general: In agar dilution, organisms are placed on agar that contains the substance at set levels.)

Data set [4] relates to C. albicans A9540. Briefly: Antifungal activity test, agar dilution method. Type of data set: cell-based. The conditions noted are these: for MIC C. albicans A9540: yeast morphology agar, pH 7.0, 30° C. for 2 days; for antifungal activity against C. albicans (in words): compared with control BMY28864. The method, then:
as §1

Data set [5] relates to C. neoformans ATCC 90112. In words: Antifungal activity test, agar dilution method. Type of data set: cell-based. The conditions noted are these: for MIC C. neoformans ATCC 90112: yeast morphology agar, pH 7.0, 30° C. for 2 days; for antifungal activity against C. neoformans (in words): compared with control BMY28864. The method, then: as §1

Values after ≈ are worked out from the molar mass of the structure shown.

For `COc1cc(O)c2c(c1)C(=O)c1c(cc3c(c1O)-c1c(cc(C)c(C(=O)N[C@H](CO)C(=O)O)c1O)[C@H](O[C@@H]1O[C@H](C)[C@H](N(C)C)[C@H](O[C@@H]4OC[C@@H](O)[C@H](O)[C@H]4O)[C@H]1O)[C@H]3O)C2=O` [BMY28864, N,N′-dimethylpradimicin FA-2, reference compound], in data set [1], the “Solubility PBS(+)” value is listed as 16,000 μg/ml and the “Solubility PBS (−)” value is listed as 14,000 μg/ml. In addition, the Binding to mannan in data set [2] is given as 0.81 μg/1 μg of mannan. Further, in data set [3], the “MIC A. fumigatus IFO8866” value came out at 12.5 µg/mL (≈ 14.4 µM). Besides, the “MIC C. albicans A9540” value in data set [4] came to 6.3 µg/mL (≈ 7.23 µM). Also, the “MIC C. neoformans ATCC 90112” value in data set [5] is 3.1 µg/mL (≈ 3.56 µM).
For the compound `COc1cc(O)c2c(c1)C(=O)c1c(cc3c(c1O)-c1c(cc(C)c(C(=O)N[C@H](CO)C(=O)O)c1O)[C@H](O[C@@H]1O[C@H](C)[C@H](N(C)C)[C@H](O[C@H](OCC(=O)O)C(=O)O)[C@H]1O)[C@H]3O)C2=O` [BMY28864-DCA], in data set [1], the “Solubility PBS(+)” value is listed as 37,500 μg/ml and the “Solubility PBS (−)” value is reported as 37,500 μg/ml. Besides, in data set [2], the Binding to mannan was 0.28 μg/1 μg of mannan. Moreover, in data set [3], the “antifungal activity against A. fumigatus (in words)” value is listed as “relatively low” and the “MIC A. fumigatus IFO8866” value is over 50 µg/mL. Moreover, in data set [4], the “antifungal activity against C. albicans (in words)” value is listed as “maintained” and the “MIC C. albicans A9540” value amounted to 12.5 µg/mL (≈ 14.4 µM). Further, in data set [5], the “antifungal activity against C. neoformans (in words)” value is “maintained” and the “MIC C. neoformans ATCC 90112” value was found to be 25 µg/mL (≈ 28.7 µM).
Turning to `COc1cc(O)c2c(c1)C(=O)c1c(cc3c(c1O)-c1c(cc(C)c(C(=O)N[C@H](C)C(=O)O)c1O)[C@H](O[C@@H]1O[C@H](C)[C@H](N(C)C)[C@H](O[C@@H]4OC[C@@H](O)[C@H](O)[C@H]4O)[C@H]1O)[C@H]3O)C2=O` [N,N-Me2-PRM C, reference compound], in data set [1], the “Solubility PBS(+)” value stood at 950 µg/mL (≈ 1110 µM) and the “Solubility PBS (−)” value is reported as 1,900 μg/ml. Moreover, the Binding to mannan in data set [2] is recorded as 0.79 μg/1 μg of mannan.
Take `COc1cc(O)c2c(c1)C(=O)c1c(cc3c(c1O)-c1c(cc(C)c(C(=O)N[C@H](C)C(=O)O)c1O)[C@H](O[C@@H]1O[C@H](C)[C@H](N(C)C)[C@H](O[C@H](OCC(=O)O)C(=O)O)[C@H]1O)[C@H]3O)C2=O` [N,N-Me2-PRM C-DCA]: in data set [1], the “Solubility PBS(+)” value is given as 1,850 μg/ml and the “Solubility PBS (−)” value is reported as 1,400 μg/ml. Besides, in data set [2], the Binding to mannan is ~0 μg/1 μg of mannan. Further, in data set [3], the “antifungal activity against A. fumigatus (in words)” value is recorded as “lower than that of BMY28884” and the “MIC A. fumigatus IFO8866” value is 25 µg/mL (≈ 29.2 µM). In data set [4], the “antifungal activity against C. albicans (in words)” value is recorded as “almost equal to those of BMY28884” and the “MIC C. albicans A9540” value turned out to be 6.3 µg/mL (≈ 7.37 µM). Also, in data set [5], the “antifungal activity against C. neoformans (in words)” value is reported as “almost equal to those of BMY28884” and the “MIC C. neoformans ATCC 90112” value came out at 3.1 µg/mL (≈ 3.63 µM).
As for `CN[C@@H]1[C@H](O[C@@H]2OC[C@@H](O)[C@H](O)[C@H]2O)[C@@H](O)[C@H](O[C@H]2c3cc(C)c(C(=O)N[C@H](C)C(=O)O)c(O)c3-c3c(cc4c(c3O)C(=O)c3cc(OC)cc(O)c3C4=O)[C@@H]2O)O[C@@H]1C` [PRM A, Pradimicin (PRM) A, reference compound], in data set [1], the “Solubility PBS(+)” value worked out at 68.5 µg/mL (≈ 81.5 µM) and the “Solubility PBS (−)” value was found to be 39.5 µg/mL (≈ 47 µM). The Binding to mannan in data set [2] is 0.89 μg/1 μg of mannan.
For `CN[C@@H]1[C@H](O[C@H](OCC(=O)O)C(=O)O)[C@@H](O)[C@H](O[C@H]2c3cc(C)c(C(=O)N[C@H](C)C(=O)O)c(O)c3-c3c(cc4c(c3O)C(=O)c3cc(OC)cc(O)c3C4=O)[C@@H]2O)O[C@@H]1C` [PRM A-DCA], in data set [1], the “Solubility PBS(+)” value is reported as 2,300 μg/ml and the “Solubility PBS (−)” value is 2,250 μg/ml. In data set [2], the Binding to mannan was 0.02 μg/1 μg of mannan. In data set [3], the “antifungal activity against A. fumigatus (in words)” value was “relatively low” and the “MIC A. fumigatus IFO8866” value was over 50 µg/mL. In data set [4], the “antifungal activity against C. albicans (in words)” value is “maintained” and the “MIC C. albicans A9540” value stood at 6.3 µg/mL (≈ 7.49 µM). In data set [5], the “antifungal activity against C. neoformans (in words)” value is recorded as “maintained” and the “MIC C. neoformans ATCC 90112” value came to 12.5 µg/mL (≈ 14.9 µM).
